How the values were obtained:
[1] = CCK8 cell viability (cytotoxicity) assay; type: cell-based, murine; conditions: mouse, RAW264.7 cells, means ± SD (n = 3)
Protocol: The toxic effect of synthesized compounds was evaluated on RAW264.7 cells utilizing a CCK8 assay kit.
RAW264.7 cells were seeded in 96-well plates and incubated with various compounds, each at a uniform concentration of 50 μM, for 24 h. Following this incubation, CCK8 was added to the 96-well plates and incubated at 37 °C for 1 h. The control group was cultivated solely in fresh medium. The absorbance at 450 nm was quantified using an enzyme marker.

[2] = test system: LPS-induced NO production in RAW 264.7 cells; assay: LPS-induced NO production (Griess reagent); type: cell-based, murine; conditions: Mus musculus, RAW264.7, LPS 500 ng/mL 24 h, Griess reagent, means ± SD (n = 3), read-out: IC50, inhibition of LPS-induced NO production
Protocol: Despite extensive research efforts focused on the treatment ALI, no specific drugs have been identified thus far. In the quest to discover innovative anti-inflammatory drugs for ALI treatment, we assessed the anti-inflammatory potential of pyrrolo[2,1-a]isoquinoline aryl ketones were evaluated through their capacity to suppress LPS-induced NO release in RAW264.7 cells.[21,28] Griess reagent was used to quantify the levels of LPS-induced NO release in RAW264.7 cells following treatment with the synthesized compounds.
The quantification of NO production in activated RAW264.7 cells was achieved by measuring the concentration of nitrite, which serves as a stable oxidative metabolite of NO, employing a previously established protocol.[37] RAW264.7 cells were cultured overnight in 48-well plates at a cellular density of 5 × 10^4 cells per milliliter. […] Briefly, Griess reagents I and II were mixed with 50 μL of the culture medium supernatant, and the resultant mixture was analyzed spectrophotometrically at a wavelength of 540 nm using an automated microplate reader. The NO inhibition rate was calculated using the following formula: NO inhibition rate = [(OD540 − compound OD540)/(OD540 − blank OD540)] × 100%.

IL-6 [3] = assay: IL-6 secretion in LPS-stimulated RAW264.7 macrophages (ELISA); type: cell-based, murine; conditions: LPS (0.5 μg/mL)-stimulated RAW264.7 cells, 5, 20, 40 μM, 24 h
Protocol: To elucidate the anti-inflammatory mechanisms underlying 3g and 3k, we conducted a comprehensive investigation into their impact on the secretion of pro-inflammatory cytokines, employing an LPS-stimulated RAW264.7 macrophage model. TNF-α and IL-6, which serve as pivotal mediators in the pathogenesis of ALI, are primarily secreted by activated alveolar macrophages, neutrophils, and lung structural cells. […] In this study, RAW264.7 cells were treated with LPS (0.5 μg mL^−1) and varying concentrations of 3g or 3k for 24 hours. […] This mechanistic understanding provides robust support for the therapeutic potential of the novel diaryl ketone scaffold in the ALI management.
Fig. 2 Compounds 3g and 3k inhibited the cytokine production of RAW264.7 cells stimulated by LPS. […] The levels of IL-6 (A) and TNF-α (B) in the culture medium were measured by ELISA kits. Data are expressed as mean ± SEM for each group of independent experiments (n = 3); *p < 0.05; **p < 0.01; ***p < 0.001 vs. model group.
Based on the initial screening results, compounds 3g and 3k were selected for further experimentation. […] The levels of TNF-α and IL-6 released into the macrophage supernatant were quantified using ELISA kits sourced from Elabscience (Wuhan, China), according to the manufacturer's guidelines.

SWCNT-induced ALI mice = assay: Complete blood count in SWCNT-induced ALI mice; type: in vivo, C57BL/6 mice; conditions: 50 mg/kg once a day for 3 d, p < 0.01 vs. model
From the text: To explore the immunomodulatory effects of 3g and 3k, we conducted an analysis of systemic inflammatory responses in mice with SWCNT-induced ALI by employing hematological profiling. During inflammatory responses, immune activation induces cytokine production and modulates leukocyte trafficking dynamics. […] Mechanistically, the proliferation of LY is initiated in response to inflammatory stimuli as a means to combat infection. […] Consequently, this leads to a diminished requirement for the continuous mobilization of LY. These findings highlight the anti-inflammatory and immunomodulatory properties of pyrrolo[2,1-a]isoquinoline derivatives in mitigating SWCNT-induced pulmonary injury.
Based on the results of the previous in vitro experiments, 3g and 3k were chosen for animal experiments. 3g was dissolved in 5% DMSO and 3k was dissolved in 0.5% sodium carboxymethyl cellulose (CMC-Na). Male C57BL/6 mice were randomly divided into four groups of ten animals each: CON, single-walled carbon nanotubes (SWCNT) model, 3k (50 mg kg^−1) + SWCNT, 3g (50 mg kg^−1) + SWCNT. […]
Blood samples were extracted from the eyeballs of each experimental mouse cohort to obtain comprehensive whole blood specimens. Complete blood count (CBC) and differential leukocyte count (DLC) were determined using an automatic blood cell analyzer (Mindray CAL 6000, China).

IL-6 [4] = assay: IL-6 in BALF of ALI mice (ELISA); type: in vivo, C57BL/6 mice; conditions: SWCNT-induced ALI mice, 50 mg per kg dose
Protocol: To confirm the in vivo inhibitory effects of 3g and 3k, we examined the levels of pro-inflammatory cytokines in bronchoalveolar lavage fluid (BALF) from ALI mice.
Based on the results of the previous in vitro experiments, 3g and 3k were chosen for animal experiments. 3g was dissolved in 5% DMSO and 3k was dissolved in 0.5% sodium carboxymethyl cellulose (CMC-Na). Male C57BL/6 mice were randomly divided into four groups of ten animals each: CON, single-walled carbon nanotubes (SWCNT) model, 3k (50 mg kg^−1) + SWCNT, 3g (50 mg kg^−1) + SWCNT. The SWCNT model group was administered a one-time tracheal drip of 50 μL of SWCNT suspension containing 40 μg of SWCNT (approximately 1.86 mg per kg body weight) per mouse to model ALI. A blank tracheal drip of PBS was administered to the negative control. 3k + SWCNT and 3g + SWCNT groups were administered 3k or 3g of 50 mg per kg body weight once a day for 3d. The animals in the CON group received the same volume of 0.5% CMC-Na. The 1st dose was administered 1 h before modeling to avoid excessive damage to mice. The control and model groups were injected intraperitoneally with a blank solvent. […]
The collected bronchoalveolar lavage fluid (BALF) was centrifuged to obtain the supernatant. The concentrations of TNF-α and IL-6 in BALF were determined using ELISA. […]

SMILES	viability at 24 h, 50 µM [1] [%]	IC50 [2] [µM]	IL-6 secretion (IL-6 [3])	Circulating lymphocyte (LY) count (SWCNT-induced ALI mice)	IL-6 level in BALF (IL-6 [4])
Cc1ccccc1C(=O)c1ccc2c3ccccc3ccn12 [3k]	98.8 ± 4.7	10.1 ± 2.09	suppressed cytokine secretion in a dose-dependent manner	significantly reduced circulating LY populations	effectively suppressed the release of TNF-α and IL-6
O=C(c1ccc(F)cc1)c1ccc2c3ccccc3ccn12 [3g]	86.5 ± 1.2	6.91 ± 0.12	suppressed cytokine secretion in a dose-dependent manner	significantly reduced circulating LY populations	effectively suppressed the release of TNF-α and IL-6

Source: article PMC12590356, “Novel pyrrolo[2,1-a]isoquinoline aryl ketones attenuate carbon nanotube-induced acute lung injury through NF-κB pathway inhibition” (RSC Advances, 2025)
